# Assay results reported in patent US20240197746A1, “COMBINATION THERAPY WITH A MEK INHIBITOR AND A SRC INHIBITOR FOR THE TREATMENT OF COLORECTAL CANCER” (Yeda Research and Development Co. Ltd., priority 2021, published 2024).
# Read-outs that look alike come from different tables or passages of the source.
# Test system: fresh & PDX human tumors
# Test: EVOC drug dose calibration, cell death by H&E viability score
# Format: cell-based
# Excerpt: Tissue acquisition and EVOC. Female NOD scid gamma (NSG) mice (4-6 months old) bearing PDX tumors were purchased from Jackson Laboratories. Mice arrived to the facility when the tumors had grown sufficiently to be apparent (approximately 60 mm^3) and were maintained until the maximal permitted tumor volume of 1,000 mm^3 was achieved. Mice were killed with CO2, and tumor tissues were removed and placed in ice-cold PBS. Tumors were sliced into 250-μm-thick slices using a vibratome (VF300, Precisionary Instruments) and placed in six-well plates on titanium grids (MA0036, Alabama R&D) with 4 ml of DMEM/F12 medium (supplemented with 5% fetal calf serum, 100 IU ml^−1 penicillin with 100 μg ml−1 streptomycin, 2.5 μg ml^−1 amphotericin B, […] gentamicin sulfate and 100 μl ml−1 l-glutamine). Tissue was cultured at 37° C. with 5% CO2 and 80% O2 on an orbital shaker (TOU-120N, MRC) at 70 r.p.m. The following day, tissue was treated with drugs as indicated for 96 h (medium was changed after 48 h and fresh drug was added), followed by formalin fixing and paraffin embedding after overnight fixation in 4% paraformaldehyde. Note that duplicates and triplicates were assigned randomly to mimic heterogeneity within the tumor tissue in vivo.
# Human tumor tissue, either from primary colon cancer or metastatic lesions, was obtained from individuals at the time of operation or at the time of tissue core biopsy. After resection, the fresh tissue was placed in ice-cold PBS for immediate transfer to the lab for EVOC. Specimens were coded anonymously before their arrival to the lab. Forty-six individuals were enrolled in the study and had sufficient tumor volume at operation or accessible tumors for core biopsy to allow us to perform EVOC. In one individual, both primary and metastatic cancer tissue was obtained so that 47 samples in total were studied. In 14 individuals, there was either adenoma or not enough tumor tissue for evaluation. In an additional three individuals, the tissue was necrotic before slicing and EVOC. In one individual, the tissue culture was contaminated, and in one individual, the fixation was insufficient. Finally, 29 CRC primary or metastatic tumors from 28 individuals were analyzed by EVOC.
# Histologic sections were assessed for viability by an independent blinded pathologist. Tissue viability was scored on a scale from 0 to 4, where 0 is less than 10% viable tissue and 4 is more than 90% viable tissue. Scores of 3, 2 and 1 correspond to tissue viability of 61-90%, 31-60% and 10-30%, respectively.
# Determination of drug treatment concentrations. To determine the concentration of each drug to be used in the ex vivo screen, we first calibrated the effect of multiple concentrations of each drug on PDX CRC tumors. For the screens, we selected the doses that were minimally effective in killing tissue after 4 d of treatment as evaluated by H&E staining. […] In addition, when testing targeted therapies, the present inventors validated that the chosen drug concentrations were effective in inhibiting their targets. This was evaluated by immunohistochemical staining after 24 h of treatment (FIGS. 11A-C). Here again, the lowest drug concentration that was enough to inhibit the drug target was used.
# [1] = EVOC, concentrations that demonstrate a difference in amount of cell death in individual patient tissues
SMILES,Range eliciting differential response [1],Range eliciting differential response [µM]
N.N.[Cl][Pt][Cl] [Cisplatin],0.3-30^ uM,
"Cl.Cl.O=S(=O)(NCCNC/C=C/c1ccc(Br)cc1)c1cccc2cnccc12 [H89 2HCl, H-89 dihydrochloride]",1 to 16 µM,
COc1ccc(C2=N[C@@H](c3ccc(Cl)cc3)[C@@H](c3ccc(Cl)cc3)N2C(=O)N2CCNC(=O)C2)c(OC(C)C)c1 [Nutlin],4 to 16 µM,
O=C1[O][Pt]2([NH][C@@H]3CCCC[C@H]3[NH]2)[O]C1=O [Oxaliplatin],,2 to 64
Cc1cc(Nc2cc(N3CCN(C)CC3)nc(Sc3ccc(NC(=O)C4CC4)cc3)n2)n[nH]1 [VX-680],1 to 16 µM,
